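Dose response: 5 concentrations. Exposure: 48 h. Format: 96-well plates. Endpoint: linear interpolation; highest concentration if not reached. The concentration for full growth arrest is given as TGI.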

Holding throughout (test): inhibition of tumour cell growth, NCI panel, 48 h
In assay [1] the test system is A498 renal.
The test system of assay [2] is A549 NSCLC.
Assay [3] deals with HCC-2998 colon.
Assay [4] relates to HL-60(TB) leukemia.
Assay [5] relates to HOP-92 NSCLC.
The test system of assay [6] is HS 578T breast.
In assay [7] the test system is HT29 colon.
Assay [8] concerns KM12 colon.
Assay [9] deals with LOX IMVI melanoma.
Assay [10] relates to M14 melanoma.
Assay [11] deals with OVCAR-3 ovarian.
Assay [12] deals with SF-539 CNS.
Assay [13] deals with SK-OV-3 ovarian.
The subject of assay [14] is SNB-75 CNS.
The subject of assay [15] is SW-620 colon.
In assay [16] the test system is UACC-257 melanoma.
Assay [17] relates to MCF7 breast.
Assay [18] relates to OVCAR-4 ovarian.

Consider `COC1C(O)C(C)OC(OC2CCC3(C)C(CCC4C3C(O)CC3(C)C(C5=CC(=O)OC5)CCC43O)C2)C1O` (configuration not stated), for which the TGI is 0.703 µM in assay [1]; 0.192 µM in [2]; 4.91 µM in [3]; 0.665 µM in assay [4]; 3.33 µM in [5]; over 100 µM in assay [6]. In addition, the TGI in [7] stood at 2.23 µM; in assay [8], 6.12 µM; in [9], 0.775 µM; in assay [10], 1.02 µM; in assay [11], 0.553 µM; in assay [12] it was 0.22 µM. Besides, the TGI in [13] stood at 0.905 µM; in assay [14], 2.78 µM; in [15], 4.9 µM; in [16], 3.13 µM.
With `CCO/C(Cc1ccc(Cl)cc1)=N/NC(N)=S`, the TGI in assay [1], in [2], in [3], in assay [5], in assay [6] and in assay [7] was over 100 µM each time. Further, the TGI in [8], in assay [9], in [10], in assay [17], in [11] and in assay [18] was over 100 µM each time. Also, the TGI in assay [12], in assay [13], in assay [14], in assay [15] and in assay [16] was over 100 µM in each case.
On to `NC(Cc1ccc(B(O)O)cc1)C(=O)NC(CO)CO` (configuration not stated), for which the TGI in [2], in [3], in assay [6], in [7], in assay [8] and in assay [9] was over 100 µM throughout. In addition, the TGI in assay [10], in assay [11], in assay [18], in [12], in assay [13] and in [14] was over 100 µM each time. Moreover, the TGI in assay [15] and in [16] was over 100 µM in each case.
Regarding `N/C(=N\S(=O)(=O)c1cc(Cl)c(Oc2ccc([N+](=O)[O-])cc2Cl)c(Cl)c1)Nc1ccc(Cl)cc1`, the TGI in assay [1] was 29.4 µM; in [2], 35.9 µM; in assay [4], 39.6 µM; in [5], 32.3 µM; in [6], over 100 µM; in [7] it was 54.4 µM. The TGI in assay [8] stood at 36.6 µM; in [9] it was 31.6 µM; in [10], 36.4 µM; in assay [11], 37.6 µM; in [18], 30.4 µM; in assay [12] it was 34.4 µM. Besides, the TGI in [13] is 39.8 µM; in assay [14], 35.2 µM; in assay [15] it was 45.9 µM; in assay [16], 32.8 µM.
As for `CC1=C2C3OC(=O)C(C)C3CCC2(C)C=CC1=Nc1ccccc1` (configuration not stated), the TGI in [1], in [2], in assay [3], in assay [4], in assay [5] and in assay [7] was over 100 µM throughout. Moreover, the TGI in assay [8], in assay [9], in assay [17], in assay [11], in assay [18] and in [12] was over 100 µM in each case. The TGI in [13], in assay [14], in [15] and in assay [16] was over 100 µM each time.
In the case of `CN(C(=O)c1ccc(OCCCC(=O)O)c(Cl)c1Cl)C1CCCC1`, the TGI in assay [1], in assay [2], in [3], in [4], in assay [5] and in assay [7] was over 100 µM in each case. Besides, the TGI in assay [8], in [9], in assay [17], in [11], in assay [18] and in assay [12] was over 100 µM in each case. Besides, the TGI in assay [13], in [14], in assay [15] and in assay [16] was over 100 µM each time.
As to `CCCCCCCCC/C=C1/CC(CO)(COC(=O)c2ccccc2)OC1=O` (configuration not stated), the TGI in assay [1] stood at 26.4 µM; in [2] it was 26.7 µM; in assay [3] it was 27.8 µM; in [5] it was 14.4 µM; in [6], 13 µM; in [7] it was 31.6 µM. The TGI is 30.6 µM in assay [8]; 30.8 µM in assay [10]; 30.5 µM in assay [17]; 31.2 µM in assay [11]; 26.5 µM in assay [18]; 34.8 µM in assay [12]. The TGI is 36 µM in assay [13], 22.1 µM in assay [14], 27.4 µM in [15] and 27.4 µM in assay [16].
In the case of `N#Cc1c(O)c2ccccc2[nH]c1=O`, the TGI in [1], in [2], in assay [3], in assay [4], in assay [5] and in [7] was over 100 µM throughout. Besides, the TGI in assay [8], in assay [9], in [10], in assay [17], in assay [11] and in [18] was over 100 µM each time. Moreover, the TGI in assay [12], in assay [13], in assay [14], in [15] and in [16] was over 100 µM in each case.
In the case of `CCOC(=O)c1cc(C2CCN(Cc3ccccc3)C2=S)c(C(=O)C=[N+]=[N-])[nH]1` (configuration not stated), the TGI in [1], in assay [2], in assay [3], in assay [5], in assay [6] and in assay [7] was over 100 µM each time. Moreover, the TGI in [8] was over 100 µM; in assay [10], 48.7 µM; in [17], 40.4 µM; in [11], 45.1 µM; in assay [18] it was over 100 µM; in assay [13] it was over 100 µM. In addition, the results for the TGI in assay [14], in assay [15] and in assay [16] were 91.6 µM, over 100 µM and 71.4 µM, respectively.
For the molecule `CCCCOC(=O)c1cc(C(=CCC[C@H]2CC[C@@]3(C)[C@@H](CC[C@@H]4[C@@H]3CC[C@]3(C)[C@@H](C(C)CCCC(C)C)CC[C@@H]43)C2)c2cc(Cl)c(O)c(C(=O)OCCCC)c2)cc(Cl)c1O` (some centres not stated), the TGI in assay [1], in assay [3], in [4], in assay [5], in assay [6] and in assay [7] was over 50 µM throughout. In addition, the TGI in assay [8], in assay [9], in assay [11], in [18], in assay [14] and in assay [15] was over 50 µM in each case.
For the molecule `CCCC(=O)NC(Nc1ccc(S(=O)(=O)Nc2ccc(OC)nn2)cc1)(C(F)(F)F)C(F)(F)F`, the TGI in assay [1], in assay [2], in assay [3], in assay [4], in assay [5] and in assay [6] was over 100 µM in each case. For the same molecule, the TGI in assay [7], in [8], in assay [9], in [10], in [11] and in assay [18] was over 100 µM each time. The TGI in assay [12], in assay [13], in assay [14], in [15] and in assay [16] was over 100 µM throughout.
Regarding `S=C(N1CCN(c2ccccc2)CC1)N1CCN(c2ccccc2)CC1`, the TGI in assay [1], in [2], in [3], in assay [6], in assay [7] and in [8] was over 100 µM in each case. The TGI in assay [10], in assay [17], in [11], in assay [18], in assay [13] and in assay [14] was over 100 µM each time. Moreover, the TGI in [15] and in assay [16] was over 100 µM in each case.
Take `COc1ccc(C(=O)/C=C/c2ccc(OCC(=N)N)cc2)cc1`: the TGI in assay [1] worked out at 27.9 µM; in [2], 33.1 µM; in assay [3], 30.4 µM; in [5], 28.5 µM; in assay [6], 34.9 µM; in assay [7] it was 28.8 µM. In addition, the TGI is 25.8 µM in assay [8]; 32.6 µM in assay [10]; 26.8 µM in [17]; 27.5 µM in assay [11]; 30.5 µM in assay [18]; 29.6 µM in assay [12]. For the same molecule, the TGI was determined as 25.5 µM in assay [13], 20.3 µM in [14], 14.7 µM in assay [15] and 38.1 µM in assay [16].

For the origin of these results see PubChem BioAssay (NCI).
